Reference: patent US9394284B2, “Compounds act at multiple prostaglandin receptors giving a general anti-inflammatory response” (Allergan, Inc., priority 2010, dated 2016)

Columns and labels:
Format in all cases: cell-based
[1] = target: T1, human prostanoid EP2 receptor (Homo sapiens, UniProt P43116); assay: FLIPR Ca2+ signaling antagonist assay, EP2 receptor stable cell line; conditions: HEK-293 EBNA stable cell line; standard agonist PGE2; NA = inactive (no antagonism or Kb 10,000 nM); PAg, Ag not defined
T1 construct: expressed in transfected cells
T1 sequence (P43116 whole entry): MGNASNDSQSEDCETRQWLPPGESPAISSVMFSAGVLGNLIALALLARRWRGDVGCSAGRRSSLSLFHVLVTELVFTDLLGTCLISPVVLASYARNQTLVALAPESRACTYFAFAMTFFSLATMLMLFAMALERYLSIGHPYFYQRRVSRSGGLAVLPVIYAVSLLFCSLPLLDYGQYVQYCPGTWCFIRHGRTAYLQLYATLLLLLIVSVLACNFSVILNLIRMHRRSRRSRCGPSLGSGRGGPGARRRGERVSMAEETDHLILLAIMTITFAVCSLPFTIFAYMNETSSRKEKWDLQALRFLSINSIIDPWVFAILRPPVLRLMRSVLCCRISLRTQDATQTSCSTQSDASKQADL
Protocol: (§1) The above compounds were tested for PG antagonist activity as follows using human recombinant prostanoid receptor (DP1, EP1-4, FP, IP and TP) stable cell lines:
(§2) In order to measure the response of Gs and Gi coupled prostanoid receptors as a Ca^2+ signal, chimeric G protein cDNAs were used. Stable cell lines over-expressing human prostanoid DP1, EP1-4, FP, IP, and TP receptors were established as follows:
(§3) Briefly, human prostanoid DP1, EP2, and EP4 receptor cDNAs were co-transfected with chimeric Gqs cDNA containing a haemagglutanin (HA) epitope; human prostanoid EP3 receptors were co-transfected with chimeric Gqi-HA; human EP1, FP, IP, and TP receptor cDNAs were expressed with no exogenous G-proteins. Gqs and Gqi chimeric cDNAs (Molecular Devices, Sunnyvale, Calif., U.S.A.), as well as cDNAs of prostanoid receptors, were cloned into a pCEP4 vector with a hygromycin B selection marker. Transfection into HEK-293 EBNA (Epstein-Barr virus nuclear antigen) cells was achieved by the FuGENE 6 transfection Reagent (Roche Applied Science, Indianapolis, Ind., USA). Stable transfectants were selected according to hygromycin resistance. Because Gqs and Gqi contained an HA epitope, G-protein expression was detected by Western blotting analysis using anti-mouse HA monoclonal antibody and horseradish peroxidase (HRP)-conjugated secondary antibody, while functional expression of prostanoid receptors was detected by FLIPR screening (Matias et al., 2004). These stable cell lines were validated using previously published antagonists at 10 μM against serial dilutions of standard agonists by FLIPR functional assays for Ca^2+ Signaling (as described below).
(§4) Ca^2+ signaling studies were performed using a FLIPR TETRA system (Molecular Devices, Sunnyvale, Calif., USA) in the 384-format. This is a high-throughput instrument for cell-based assays to monitor Ca^2+ signaling associated with GPCRs and ion channels. Cells were seeded at a density of 5×10^4 cells/well in BioCoat poly-D-lysine coated, black wall, clear bottom 384-well plates (BD Biosciences, Franklin lakes, NJ, USA) and allowed to attach overnight in an incubator at 37° C. The cells were then washed twice with HBSS-HEPES buffer (Hanks' balanced salt solution without bicarbonate and phenol red, 20 mM HEPES, pH 7.4) using an ELx405 Select CW Microplate Washer (BioTek, Winooski, Vt., USA). After 60 min of dye-loading in the dark using the Ca^2+-sensitive dye Fluo-4AM (Invitrogen, Carlsbad, Calif., USA), at a final concentration of 2×10^−6M, the plates were washed 4 times with HBSS-HEPES buffer to remove excess dye and leaving 50 μl of buffer in each well. The plates were then placed in the FLIPR TETRA instrument and allowed to equilibrate at 37° C. AGN-211377 was added in a 25 μl volume to each well to give final concentrations of 0.1 μM, 0.3 μM, 1 μM, 3 μM, 10 μM, and 30 μM; or 0.067 μM, 0.1 μM, 0.2 μM, 0.3 μM, 0.67 μM, and 1 μM for cells over-expressing TP receptors. After 4.5 minutes, a 7-point serial dilution of the standard agonist for the corresponding receptor, in a 25 μl volume was injected at the final concentrations from 10^−11M to 10^−5M in 10-fold serial dilution increments for cells expressing human recombinant DP1, EP1, EP2, EP3, EP4, FP, and IP receptors. The dose range for the standard agonist for human recombinant TP receptors was from 10^−12 M to 10^−6 M. HBSS-HEPES buffer was used as the negative control for the standard agonists. Cells were excited with LED (light emitting diode) excitation at 470-495 nm and emission was measured through an emission filter at 515-575 nm. Assay plates were read for 3.5 minutes using the FLIPR^TETRA. The peak increase in fluorescence intensity was recorded for each well. On each plate, negative controls, dose response of positive controls, and co-treatments of antagonist-agonist for each dose were in triplicates.
(§5) Standard agonists were as follows: DP=BW 245C, EP1-EP4=PGE2, FP=17-phenyl-PGF2α, IP=Cicaprost, and TP=U-46619. […]

[2] = target: T2, human prostanoid DP1 receptor (Homo sapiens, UniProt Q13258); assay: FLIPR Ca2+ signaling antagonist assay, DP1 receptor stable cell line; conditions: HEK-293 EBNA stable cell line; standard agonist BW 245C; NA = inactive (no antagonism or Kb 10,000 nM); PAg, Ag not defined
T2 construct: expressed in transfected cells
T2 sequence (Q13258 1-359): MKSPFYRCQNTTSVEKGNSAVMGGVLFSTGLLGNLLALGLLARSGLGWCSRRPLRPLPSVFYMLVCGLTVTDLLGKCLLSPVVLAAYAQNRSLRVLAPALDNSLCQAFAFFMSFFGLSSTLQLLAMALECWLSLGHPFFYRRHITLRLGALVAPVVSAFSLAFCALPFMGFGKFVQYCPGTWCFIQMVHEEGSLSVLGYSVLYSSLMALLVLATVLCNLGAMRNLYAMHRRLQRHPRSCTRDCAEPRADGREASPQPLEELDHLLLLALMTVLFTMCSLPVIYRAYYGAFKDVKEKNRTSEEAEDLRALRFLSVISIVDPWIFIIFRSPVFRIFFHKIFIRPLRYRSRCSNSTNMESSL
Protocol: as §1, §2, §3, §4, §5

[3] = target: T3, human prostanoid EP4 receptor (Homo sapiens, UniProt P35408); assay: FLIPR Ca2+ signaling antagonist assay, EP4 receptor stable cell line; conditions: HEK-293 EBNA stable cell line; standard agonist PGE2; NA = inactive (no antagonism or Kb 10,000 nM); PAg, Ag not defined
T3 construct: expressed in transfected cells
T3 sequence (P35408 whole entry): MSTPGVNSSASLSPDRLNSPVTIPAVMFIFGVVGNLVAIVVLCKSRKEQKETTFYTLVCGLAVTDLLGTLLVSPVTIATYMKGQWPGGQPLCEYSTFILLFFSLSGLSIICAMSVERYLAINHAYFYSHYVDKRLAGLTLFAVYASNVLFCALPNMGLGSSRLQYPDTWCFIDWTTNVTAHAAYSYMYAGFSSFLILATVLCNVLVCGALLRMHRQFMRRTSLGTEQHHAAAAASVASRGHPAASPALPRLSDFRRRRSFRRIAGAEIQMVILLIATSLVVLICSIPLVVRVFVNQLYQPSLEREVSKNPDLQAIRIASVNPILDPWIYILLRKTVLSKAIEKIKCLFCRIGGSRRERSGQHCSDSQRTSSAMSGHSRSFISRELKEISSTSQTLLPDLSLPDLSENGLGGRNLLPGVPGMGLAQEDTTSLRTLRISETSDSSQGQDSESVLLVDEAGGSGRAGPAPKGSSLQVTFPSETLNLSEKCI
Protocol: as §1, §2, §3, §4, §5

[4] = target: T4, human prostanoid EP1 receptor (Homo sapiens, UniProt P34995); assay: FLIPR Ca2+ signaling antagonist assay, EP1 receptor stable cell line; conditions: HEK-293 EBNA stable cell line; standard agonist PGE2; NA = inactive (no antagonism or Kb 10,000 nM); PAg, Ag not defined
T4 construct: expressed in transfected cells
T4 sequence (P34995 1-402): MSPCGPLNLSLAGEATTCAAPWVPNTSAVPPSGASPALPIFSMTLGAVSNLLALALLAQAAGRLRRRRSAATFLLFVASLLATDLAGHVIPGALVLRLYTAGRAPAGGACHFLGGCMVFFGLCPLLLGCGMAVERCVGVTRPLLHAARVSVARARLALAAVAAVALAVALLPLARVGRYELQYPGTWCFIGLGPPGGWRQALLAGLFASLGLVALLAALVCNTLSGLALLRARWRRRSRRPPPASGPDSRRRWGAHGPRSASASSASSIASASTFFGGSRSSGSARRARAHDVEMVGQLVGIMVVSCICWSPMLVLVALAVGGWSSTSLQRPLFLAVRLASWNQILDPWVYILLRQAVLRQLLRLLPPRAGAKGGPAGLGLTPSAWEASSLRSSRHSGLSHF
Protocol: as §1, §2, §3, §4, §5

[5] = target: T5, human prostanoid FP receptor (Homo sapiens, UniProt P43088); assay: FLIPR Ca2+ signaling antagonist assay, FP receptor stable cell line; conditions: HEK-293 EBNA stable cell line; standard agonist 17-phenyl-PGF2α; NA = inactive (no antagonism or Kb 10,000 nM); PAg, Ag not defined
T5 construct: expressed in transfected cells
T5 sequence (P43088 whole entry): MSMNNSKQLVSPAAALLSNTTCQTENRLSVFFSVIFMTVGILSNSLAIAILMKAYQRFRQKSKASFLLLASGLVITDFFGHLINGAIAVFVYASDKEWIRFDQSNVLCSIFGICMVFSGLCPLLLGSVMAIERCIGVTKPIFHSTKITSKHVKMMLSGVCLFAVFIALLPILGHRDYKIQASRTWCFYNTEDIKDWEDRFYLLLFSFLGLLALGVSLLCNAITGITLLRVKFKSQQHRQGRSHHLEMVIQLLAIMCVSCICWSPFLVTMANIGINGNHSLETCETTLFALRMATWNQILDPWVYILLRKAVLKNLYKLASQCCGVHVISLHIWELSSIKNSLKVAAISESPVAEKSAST
Protocol: as §1, §2, §3, §4, §5

[6] = target: T6, human prostanoid TP receptor (Homo sapiens, UniProt P21731); assay: FLIPR Ca2+ signaling antagonist assay, TP receptor stable cell line; conditions: HEK-293 EBNA stable cell line; standard agonist U-46619; NA = inactive (no antagonism or Kb 10,000 nM); PAg, Ag not defined
T6 construct: expressed in transfected cells
T6 sequence (P21731 1-343): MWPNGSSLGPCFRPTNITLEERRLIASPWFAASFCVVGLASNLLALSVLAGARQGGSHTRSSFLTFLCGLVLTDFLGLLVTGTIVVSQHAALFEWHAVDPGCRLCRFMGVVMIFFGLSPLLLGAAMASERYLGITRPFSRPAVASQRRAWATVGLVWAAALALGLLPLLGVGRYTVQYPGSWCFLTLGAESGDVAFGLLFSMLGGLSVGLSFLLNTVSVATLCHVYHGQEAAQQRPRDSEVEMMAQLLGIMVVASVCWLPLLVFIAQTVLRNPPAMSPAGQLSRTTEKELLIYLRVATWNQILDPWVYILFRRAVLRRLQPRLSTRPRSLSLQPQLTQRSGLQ
Protocol: as §1, §2, §3, §4, §5

[7] = target: T7, human prostanoid IP receptor (Homo sapiens, UniProt P43119); assay: FLIPR Ca2+ signaling antagonist assay, IP receptor stable cell line; conditions: HEK-293 EBNA stable cell line; standard agonist Cicaprost; NA = inactive (no antagonism or Kb 10,000 nM); PAg, Ag not defined
T7 construct: expressed in transfected cells
T7 sequence (P43119 whole entry): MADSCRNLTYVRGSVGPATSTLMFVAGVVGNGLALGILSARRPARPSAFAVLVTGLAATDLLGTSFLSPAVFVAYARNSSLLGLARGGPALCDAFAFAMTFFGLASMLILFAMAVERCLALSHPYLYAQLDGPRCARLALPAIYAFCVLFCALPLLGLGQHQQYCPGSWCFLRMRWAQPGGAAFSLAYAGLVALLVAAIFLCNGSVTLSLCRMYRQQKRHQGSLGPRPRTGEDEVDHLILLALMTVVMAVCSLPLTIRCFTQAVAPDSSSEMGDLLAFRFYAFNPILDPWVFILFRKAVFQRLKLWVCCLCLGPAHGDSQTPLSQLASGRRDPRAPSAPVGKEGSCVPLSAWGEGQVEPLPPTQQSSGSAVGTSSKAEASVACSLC
Protocol: as §1, §2, §3, §4, §5

Row | Structure (SMILES) | Kb [1] | Kb [2] | Kb [3] | Kb [4] | Kb [5] | Kb [6] | IP (FLIPR) Kb [7] | EP2 (FLIPR) Kb [1] | EP4 (FLIPR) Kb [3] | TP (FLIPR) Kb [6] | Kb [7] | DP1 (FLIPR) Kb [2]
1 | Cc1cc(CCC(=O)O)nn1Cc1cc(Br)ccc1OCC(C)C [Example 16, 3-[1-(5-Bromo-2-isobutoxybenzyl)-5-methyl-1H-pyrazol-3-yl]-propionic acid] | 2700 nM | 200 nM | 1000 nM | 14 nM | 70 nM | 14 nM |  |  |  |  |  | 
2 | Cc1cc(CCC(=O)O)nn1Cc1cc(Cl)ccc1OC(CC(C)C)CC(C)C [Example 23, 3-[1-(5-Chloro-2-(1-isobutyl-3-methylbutoxy)benzyl)-5-methyl-1H-pyrazol-3-yl]-propionic acid] |  | 160 nM |  | 1500 nM |  |  | Ag | PAg | Ag | Ag |  | 
3 | Cc1cc(CCC(=O)O)nn1Cc1cc(Cl)ccc1OCc1ccc(Cl)cc1C(F)(F)F [Example 29, 3-[1-(5-Chloro-2-(4-chloro-2-trifluoromethylbenzyloxy)benzyl)-5-methyl-1H-pyrazol-3-yl]-propionic acid] | 9800 nM | 790 nM |  | 70 nM | 5900 nM |  | PAg |  |  | Ag |  | 
4 | Cc1cc(CCC(=O)O)nn1Cc1cc(Cl)ccc1OCC(C)C [Example 42, 3-[1-(5-Chloro-2-(2-methylpropyloxy)benzyl)-5-methyl-1H-pyrazol-3-yl]-propionic acid] | 2500 nM | 260 nM | 1600 nM | 30 nM | 180 nM | 40 nM |  |  |  |  |  | 
5 | C#Cc1ccc(OCC(CC)CC)c(Cn2nc(CCC(=O)O)cc2C)c1 [Example 64, 3-{1-[5-Ethynyl-2-(2-ethyl-butoxy)-benzyl]-5-methyl-1H-pyrazol-3-yl}-propionic acid] |  | 800 nM | 500 nM | 270 nM | 50 nM | 9 nM |  |  |  |  | 2000 nM | 
6 | CCC(CC)COc1ccc(C)cc1Cn1nc(CCC(=O)O)cc1C [Example 65, 3-{1-[2-(2-Ethyl-butoxy)-5-methyl-benzyl]-5-methyl-1H-pyrazol-3-yl}-propionic acid] |  | 550 nM | 100 nM | 150 nM | 1300 nM | 10 nM |  |  |  |  | 2300 nM | 
7 | CCc1ccc(OCC(CC)CC)c(Cn2nc(CCC(=O)O)cc2C)c1 [Example 66, 3-{1-[5-Ethyl-2-(2-ethyl-butoxy)-benzyl]-5-methyl-1H-pyrazol-3-yl}-propionic acid] |  | 260 nM | 900 nM | 100 nM | 500 nM | 8 nM |  |  |  |  | 1500 nM | 
8 | CCC(CC)COc1ccc(Br)cc1Cn1nc(CC(C)C(=O)O)cc1C (stereo not drawn) [Example 67, 3-{1-[5-Bromo-2-(2-ethyl-butoxy)-benzyl]-5-methyl-1H-pyrazol-3-yl}-2-methyl-propionic acid] |  | 400 nM | 70 nM | 10 nM | 140 nM | 20 nM |  |  |  |  | 1500 nM | 
9 | Cc1cc(CC(C)(C)C(=O)O)nn1Cc1cc(Cl)ccc1OCC1CCCC1 [Example 72, 3-{1-[5-Chloro-2-(2-cyclopentylmethoxy)-benzyl]-5-methyl-1H-pyrazol-3-yl}-2,2-dimethyl-propionic acid] |  | 560 nM | 180 nM | 70 nM | 450 nM | 40 nM |  |  |  |  | 1700 nM | 
10 | Cc1cc(CCC(=O)O)nn1Cc1cc(Cl)ccc1CCC1CCCC1 [Example 74] |  | 600 nM | 3300 nM | 1300 nM | 3500 nM | 190 nM |  |  |  |  | 2200 nM | 
11 | Cc1cc(CCC(=O)O)nn1Cc1cc(Cl)ccc1C#CCC(C)C [Example 76, 3-{1-[5-Chloro-2-(4-methylpentynyl)-benzyl]-5-methyl-1H-pyrazol-3-yl}-propionic acid] |  |  | 1200 nM | 200 nM | 160 nM | 7 nM |  |  |  |  | 4500 nM | PAg
